Experimental data as given in USRE47221E1, “Tricyclic compounds” (AbbVie Inc., priority 2009, dated 2019).

Molecular target: T1, Jak3 (Homo sapiens, UniProt P52333)
T1 construct: Jak3 enzyme (aa 811-1103); expressed in SF9 cells as a GST fusion; GST; made in house; host or cells: SF9 insect cells
Assay: Jak3 enzyme data for selected compounds
Type: biochemical

T1 sequence (P52333 811-1103): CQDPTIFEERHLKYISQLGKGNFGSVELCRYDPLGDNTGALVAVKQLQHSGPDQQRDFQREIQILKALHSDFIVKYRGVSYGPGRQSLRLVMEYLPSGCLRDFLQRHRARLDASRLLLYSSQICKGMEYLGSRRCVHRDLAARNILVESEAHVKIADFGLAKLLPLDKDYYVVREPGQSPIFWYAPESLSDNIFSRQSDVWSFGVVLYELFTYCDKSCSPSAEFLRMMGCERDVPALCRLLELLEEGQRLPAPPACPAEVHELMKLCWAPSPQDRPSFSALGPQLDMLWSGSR

| Structure (SMILES) | IC50 |
| --- | --- |
| CC[C@@H]1C[C@H](NS(=O)(=O)N2CC(F)(F)C2)C[C@@H]1c1cnc2cnc3[nH]ccc3n12 (single isomer, unassigned) [AA.1.79, N-(3-ethyl-4-(3H-imidazo[1,2-a]pyrrolo[2,3-e]pyrazin-8-yl)cyclopentyl)-3,3-difluoroazetidine-1-sulfonamide] | < 100 nM |
| CC[C@@H]1C[C@H](OCC2CC2)C[C@@H]1c1nnc2cnc3[nH]ccc3n12 (single isomer, unassigned) [AA.1.80, 1-(4-(cyclopropylmethoxy)-2-ethylcyclopentyl)-6H-pyrrolo[2,3-e][1,2,4]triazolo[4,3-a]pyrazine] | > 1000 nM |
| C[C@@H]1C[C@H](NS(=O)(=O)NCCO)C[C@@H]1c1cnc2cnc3[nH]ccc3n12 (single isomer, unassigned) [AA.1.81] | < 100 nM |
| CC[C@@H]1C[C@@H](OCC2CC2)C[C@@H]1c1nnc2cnc3[nH]ccc3n12 (single isomer, unassigned) [AA.1.90, 1-(4-(cyclopropylmethoxy)-2-ethylcyclopentyl)-6H-pyrrolo[2,3-e][1,2,4]triazolo[4,3-a]pyrazine] | 100 to 1000 nM |
| CC[C@@H]1C[C@@H](OC2CCOCC2)C[C@@H]1c1nnc2cnc3[nH]ccc3n12 (single isomer, unassigned) [AA.1.91, 1-(2-ethyl-4-(tetrahydro-2H-pyran-4-yloxy)cyclopentyl)-6H-pyrrolo[2,3-e][1,2,4]triazolo[4,3-a]pyrazine] | 100 to 1000 nM |
| CC[C@@H]1C[C@H](NS(=O)(=O)c2ccc(F)c(Cl)c2)C[C@@H]1c1cnc2cnc3[nH]ccc3n12 (single isomer, unassigned) [AA.1.92, 3-chloro-N-(3-ethyl-4-(3H-imidazo[1,2-a]pyrrolo[2,3-e]pyrazin-8-yl)cyclopentyl)-4-fluorobenzenesulfonamide] | < 100 nM |
| C[C@H]1C[C@H](Oc2ccc(C#N)cc2)C[C@H]1c1nnc2cnc3[nH]ccc3n12 (single isomer, unassigned) [AA.1.93, 4-(3-methyl-4-(6H-pyrrolo[2,3-e][1,2,4]triazolo[4,3-a]pyrazin-1-yl)cyclopentyloxy)benzonitril] | > 1000 nM |
| C[C@H]1C[C@H](Oc2ccc(C#N)cc2)C[C@@H]1c1nnc2cnc3[nH]ccc3n12 (single isomer, unassigned) [AA.1.94, 4-(3-methyl-4-(6H-pyrrolo[2,3-e][1,2,4]triazolo[4,3-a]pyrazin-1-yl)cyclopentyloxy)benzonitrile] | 100 to 1000 nM |
| CC[C@@H]1C[C@@H](Oc2ccc(C(F)(F)F)cn2)C[C@@H]1c1nnc2cnc3[nH]ccc3n12 (single isomer, unassigned) [AA.1.95, 1-(2-ethyl-4-(5-(trifluoromethyl)pyridin-2-yloxy)cyclopentyl)-6H-pyrrolo[2,3-e][1,2,4]triazolo[4,3-a]pyrazine] | > 1000 nM |
| CC[C@H]1C[C@H](Oc2ccc(C(F)(F)F)cn2)C[C@H]1c1nnc2cnc3[nH]ccc3n12 (single isomer, unassigned) [AA.1.96, 1-(2-ethyl-4-(5-(trifluoromethyl)pyridin-2-yloxy)cyclopentyl)-6H-pyrrolo[2,3-e][1,2,4]triazolo[4,3-a]pyrazine] | > 1000 nM |
| CC[C@H]1C[C@@H](Oc2cnc(C#N)cn2)C[C@@H]1c1nnc2cnc3[nH]ccc3n12 (single isomer, unassigned) [AA.1.97, 5-(3-ethyl-4-(6H-pyrrolo[2,3-e][1,2,4]triazolo[4,3-a]pyrazin-1-yl)cyclopentyloxy)pyrazine-2-carbonitrile] | > 1000 nM |
| CC[C@@H]1C[C@H](Oc2cnc(C#N)cn2)C[C@H]1c1nnc2cnc3[nH]ccc3n12 (single isomer, unassigned) [AA.1.98, 5-(3-ethyl-4-(6H-pyrrolo[2,3-e][1,2,4]triazolo[4,3-a]pyrazin-1-yl)cyclopentyloxy)pyrazine-2-carbonitrile] | < 100 nM |
| CC[C@@H]1C[C@@H](OCc2cccc(C#N)c2)C[C@@H]1c1nnc2cnc3[nH]ccc3n12 (single isomer, unassigned) [AA.1.99, 3-((3-ethyl-4-(6H-pyrrolo[2,3-e][1,2,4]triazolo[4,3-a]pyrazin-1-yl)cyclopentyloxy)methyl)benzonitrile] | 100 to 1000 nM |
| CC[C@H]1C[C@H](OCc2cccc(C#N)c2)C[C@H]1c1nnc2cnc3[nH]ccc3n12 (single isomer, unassigned) [AA.1.100, 3-((3-ethyl-4-(6H-pyrrolo[2,3-e][1,2,4]triazolo[4,3-a]pyrazin-1-yl)cyclopentyloxy)methyl)benzonitrile] | > 1000 nM |
| CC[C@@H]1C[C@@H](OCc2ccc(C#N)cc2)C[C@@H]1c1nnc2cnc3[nH]ccc3n12 (single isomer, unassigned) [AA.1.101, 4-((3-ethyl-4-(6H-pyrrolo[2,3-e][1,2,4]triazolo[4,3-a]pyrazin-1-yl)cyclopentyloxy)methyl)benzonitrile] | < 100 nM |
| CC[C@H]1C[C@H](OCc2ccc(C#N)cc2)C[C@H]1c1nnc2cnc3[nH]ccc3n12 (single isomer, unassigned) [AA.1.102, 4-((3-ethyl-4-(6H-pyrrolo[2,3-e][1,2,4]triazolo[4,3-a]pyrazin-1-yl)cyclopentyloxy)methyl)benzonitrile] | > 1000 nM |
| CC[C@@H]1C[C@@H](Oc2ccc(C#N)c(F)c2)C[C@@H]1c1nnc2cnc3[nH]ccc3n12 (single isomer, unassigned) [AA.1.103, 4-(3-ethyl-4-(6H-pyrrolo[2,3-e][1,2,4]triazolo[4,3-a]pyrazin-1-yl)cyclopentyloxy)-2-fluorobenzonitrile] | < 100 nM |
| CC[C@@H]1C[C@@H](Oc2ccc(C#N)cc2F)C[C@@H]1c1nnc2cnc3[nH]ccc3n12 (single isomer, unassigned) [AA.1.104, 4-(3-ethyl-4-(6H-pyrrolo[2,3-e][1,2,4]triazolo[4,3-a]pyrazin-1-yl)cyclopentyloxy)-3-fluorobenzonitrile] | < 100 nM |
| CC[C@@H]1C[C@@H](O)C[C@@H]1c1nnc2cnc3[nH]ccc3n12 (single isomer, unassigned) [AA.1.106, 3-ethyl-4-(6H-pyrrolo[2,3-e][1,2,4]triazolo[4,3-a]pyrazin-1-yl)cyclopentanol] | > 1000 nM |
| CC[C@@H]1C[C@H](NS(=O)(=O)C2CC2)C[C@@H]1n1cnc2cnc3[nH]ccc3c21 (single isomer, unassigned) [Example #23] | < 100 nM |
| C[C@@H]1C[C@H](NS(=O)(=O)C2CC2)C[C@@H]1c1cnc2cnc3[nH]ccc3n12 (single isomer, unassigned) [Example #24] | < 100 nM |
| C[C@@H]1C[C@H](NS(=O)(=O)N2CC(F)(F)C2)C[C@@H]1c1cnc2cnc3[nH]ccc3n12 (single isomer, unassigned) [Example #25] | < 100 nM |
| CC[C@H]1C[C@@H](OCc2ccc(OC)cc2)C[C@@H]1c1n[nH]c2cnc3[nH]ccc3c12 (single isomer, unassigned) [Example #30] | 100 to 1000 nM |

| Structure (SMILES) | IC50 |
| --- | --- |
| CC[C@@H]1C[C@H](OCc2ccc(OC)cc2)C[C@H]1c1n[nH]c2cnc3[nH]ccc3c12 (single isomer, unassigned) [compound 31] | 100 to 1000 nM |
| O=C(N1CCC[C@@H](c2cnc3cnc4[nH]ccc4n23)C1)N1CCC[C@@H]1C(F)(F)F [AA.1.10, (3-(3H-imidazo[1,2-a]pyrrolo[2,3-e]pyrazin-8-yl)piperidin-1-yl)((R)-2-(trifluoromethyl)pyrrolidin-1-yl)methanone] | 100 to 1000 nM |
| N#C[C@H]1CCN(C(=O)N2CCC[C@@H](c3ncc4cnc5[nH]ccc5n34)C2)C1 [AA.1.12, 1-((R)-3-(6H-imidazo[1,5-a]pyrrolo[2,3-e]pyrazin-1-yl)piperidine-1-carbonyl)pyrrolidine-3-carbonitrile] | < 100 nM |
| CC[C@@H]1C[C@H](NS(=O)(=O)N2CCC2)C[C@@H]1c1nnc2cnc3[nH]ccc3n12 [D.1.10] | 100 to 1000 nM |
| CC[C@@H]1C[C@H](NS(=O)(=O)N2CC(F)(F)C2)C[C@@H]1c1nnc2cnc3[nH]ccc3n12 [D.1.11] | 100 to 1000 nM |
| CC[C@@H]1C[C@H](NS(=O)(=O)N2CCC[C@H]2C(F)(F)F)CC1c1nnc2cnc3[nH]ccc3n12 (stereo partly shown) [D.1.12] | 100 to 1000 nM |
| CC[C@@H]1C[C@H](NS(=O)(=O)N2CCC(F)(F)C2)C[C@@H]1c1nnc2cnc3[nH]ccc3n12 [D.1.13] | 100 to 1000 nM |
| CC[C@@H]1C[C@H](N(C)S(=O)(=O)C2CC2)C[C@@H]1c1nnc2cnc3[nH]ccc3n12 [D.1.21] | 100 to 1000 nM |
| CC[C@@H]1C[C@H](N(CC2CC2)S(=O)(=O)C2CC2)C[C@@H]1c1nnc2cnc3[nH]ccc3n12 [D.1.22] | 100 to 1000 nM |
| CC[C@@H]1C[C@H](NS(=O)(=O)CCC(F)(F)F)C[C@@H]1c1nnc2cnc3[nH]ccc3n12 [D.1.24] | 100 to 1000 nM |
| CC[C@@H]1C[C@H](NS(=O)(=O)C2CC2)CN1c1cnc2cnc3[nH]ccc3n12 [D.1.25] | < 100 nM |
| O=S(=O)(NC12CCC(c3nnc4cnc5[nH]ccc5n34)(CC1)CC2)N1CCC1 [D.1.29] | 100 to 1000 nM |
| O=S(=O)(NC12CCC(c3nnc4cnc5[nH]ccc5n34)(CC1)CC2)N1CC(F)(F)C1 [D.1.30] | 100 to 1000 nM |
| CC[C@@H]1C[C@H](N(CCO)S(=O)(=O)C2CC2)C[C@@H]1c1nnc2cnc3[nH]ccc3n12 [D.1.31] | < 100 nM |
| CC1(S(=O)(=O)NC23CCC(c4nnc5cnc6[nH]ccc6n45)(CC2)CC3)CC1 [D.1.33] | > 1000 nM |
| CC[C@@H]1C[C@H](NS(=O)(=O)C2(C)CC2)C[C@@H]1c1nnc2cnc3[nH]ccc3n12 [D.1.35] | < 100 nM |
| O=S(=O)(NC12CCC(c3nnc4cnc5[nH]ccc5n34)(CC1)CC2)C1CCC1 [D.1.39] | 100 to 1000 nM |
| CC[C@@H]1C[C@H](NS(=O)(=O)C2CC2)C[C@@H]1c1nc(Br)c2cnc3[nH]ccc3n12 [D.1.45] | < 100 nM |
| CC[C@@H]1C[C@H](NS(=O)(=O)C2CC2)CN1c1ncc2cnc3[nH]ccc3n12 [D.1.46] | < 100 nM |
| C[C@@H]1C[C@H](NS(=O)(=O)C2CC2)CN1c1ncc2cnc3[nH]ccc3n12 [D.1.47] | 100 to 1000 nM |
| N#Cc1ccc(OCC23C4C5C2C2C3C4C52c2ncc3cnc4[nH]ccc4n23)cc1 (stereo not shown) [D.1.49] | 100 to 1000 nM |
| CC[C@@H]1C[C@H](NS(=O)(=O)N2CCN(C)CC2)C[C@@H]1c1nnc2cnc3[nH]ccc3n12 [D.1.50] | > 1000 nM |
| FC(F)(F)c1nc2cnc3[nH]ccc3c2n1C1CCCCC1 [D.1.52] | 100 to 1000 nM |
